Reference: ChEMBL document CHEMBL1201862, “PubChem BioAssay data set” (2004)
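The compound was tested at five concentrations on cells cultured in 96-well plates, with a 48-hour exposure period. GI50: concentration for 50% inhibition of growth.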 The source made the active and inactive calls. No stated cut-off is given here; in the data, active = GI50 up to about 1.1 µM and inactive = higher.

Key:
Test in all cases: growth of human tumour cells (NCI), 48 h
DLD-1 = tested on: DLD-1
NCI-H226 = tested on: NCI-H226
ACHN = tested on: ACHN
Malme-3M = tested on: Malme-3M
UACC-62 = tested on: UACC-62
K562 = tested on: K562
SF-295 = tested on: SF-295
SK-MEL-2 = tested on: SK-MEL-2
LOX IMVI = tested on: LOX IMVI
CAKI-1 = tested on: CAKI-1
SN12C = tested on: SN12C
SNB-19 = tested on: SNB-19
NCI-H460 = tested on: NCI-H460
KM12 = tested on: KM12
OVCAR-3 = tested on: OVCAR-3

Measured: GI50

O=C(O)c1cc(S(=O)(=O)N/N=C\c2c3ccccc3[n+]([O-])c3ccccc23)ccc1O
inactive: DLD-1 16.7 µM | NCI-H226 26.7 µM | ACHN 18.6 µM | Malme-3M 17.7 µM | UACC-62 8.69 µM | K562 8.61 µM | SF-295 4.45 µM | SK-MEL-2 16.9 µM | LOX IMVI 8 µM | CAKI-1 45.8 µM | SN12C 17.9 µM | SNB-19 31.6 µM | NCI-H460 5.96 µM | KM12 23.8 µM | OVCAR-3 40.1 µM

C=CCOC(C)n1c(C)c(Br)c(=O)[nH]c1=O (configuration not stated)
inactive: DLD-1 > 100 µM | NCI-H226 > 100 µM | ACHN > 100 µM | Malme-3M > 100 µM | UACC-62 > 100 µM | SF-295 > 100 µM | SK-MEL-2 > 100 µM | LOX IMVI > 100 µM | CAKI-1 > 100 µM | SN12C > 100 µM | SNB-19 > 100 µM | NCI-H460 > 100 µM | KM12 > 100 µM | OVCAR-3 > 100 µM

CCOP(=O)(OCC)C(C(=O)OC)C(=O)C(=O)Nc1ccc(Cl)cc1Cl (configuration not stated)
inactive: DLD-1 > 100 µM | NCI-H226 > 100 µM | ACHN > 100 µM | Malme-3M > 100 µM | UACC-62 > 100 µM | K562 > 100 µM | SK-MEL-2 > 100 µM | LOX IMVI > 100 µM | CAKI-1 > 100 µM | SN12C > 100 µM | SNB-19 > 100 µM | NCI-H460 > 100 µM | KM12 > 100 µM | OVCAR-3 > 100 µM

CC1=Nn2c(nnc2-c2ccc(N)cc2)NC(C)(C)C1
inactive: DLD-1 > 100 µM | NCI-H226 > 100 µM | ACHN > 100 µM | Malme-3M > 100 µM | UACC-62 > 100 µM | K562 > 100 µM | SF-295 > 100 µM | SK-MEL-2 > 100 µM | LOX IMVI > 100 µM | CAKI-1 > 100 µM | SNB-19 > 100 µM | NCI-H460 > 100 µM | KM12 > 100 µM | OVCAR-3 > 100 µM

CCCCCCCCCCn1cccc1/C=C/c1ccc(/C=C/c2cccn2CCCCCCCCCC)cc1
inactive: DLD-1 > 100 µM | NCI-H226 > 100 µM | ACHN > 100 µM | Malme-3M > 100 µM | UACC-62 > 100 µM | K562 > 100 µM | SF-295 > 100 µM | LOX IMVI > 100 µM | CAKI-1 > 100 µM | SN12C > 100 µM | SNB-19 > 100 µM | NCI-H460 > 100 µM | KM12 > 100 µM | OVCAR-3 > 100 µM

COc1ccc(Nc2nc3cc(C(F)(F)F)ccc3nc2-c2ccccc2)cc1OC
inactive: DLD-1 21.4 µM | NCI-H226 15.8 µM | ACHN 30.6 µM | Malme-3M 21.7 µM | UACC-62 27.4 µM | K562 61 µM | SF-295 11.3 µM | SK-MEL-2 48.9 µM | LOX IMVI 19.8 µM | CAKI-1 31.5 µM | SN12C 39.7 µM | NCI-H460 27.7 µM | KM12 > 100 µM | OVCAR-3 18.7 µM

N#C/C(=C\c1cc(O)ccc1O)C(N)=O
inactive: DLD-1 70.6 µM | NCI-H226 34 µM | ACHN 26.8 µM | Malme-3M 74 µM | UACC-62 30.4 µM | K562 27 µM | SF-295 47.6 µM | SK-MEL-2 42.5 µM | CAKI-1 46.2 µM | SN12C 50.4 µM | SNB-19 57.8 µM | NCI-H460 40.7 µM | KM12 46.1 µM | OVCAR-3 38.6 µM

CCc1ccc(Cc2ccc(CC)c(NC(=O)C(=O)Cc3nc4ccccc4nc3C)c2CC)c(CC)c1NC(=O)C(=O)Cc1nc2ccccc2nc1C
inactive: DLD-1 > 100 µM | ACHN 61.2 µM | Malme-3M 81.3 µM | UACC-62 > 100 µM | K562 > 100 µM | SK-MEL-2 > 100 µM | LOX IMVI > 100 µM | CAKI-1 25.4 µM | SNB-19 45.1 µM | NCI-H460 > 100 µM | KM12 > 100 µM | OVCAR-3 15 µM

CCOC1=C2N=C(Cc3ccccc3F)N=C2C(=O)c2ccccc21
inactive: DLD-1 > 100 µM | NCI-H226 > 100 µM | ACHN > 100 µM | Malme-3M > 100 µM | UACC-62 > 100 µM | K562 > 100 µM | SF-295 > 100 µM | SK-MEL-2 > 100 µM | CAKI-1 > 100 µM | SN12C > 100 µM | SNB-19 > 100 µM | NCI-H460 > 100 µM | KM12 > 100 µM | OVCAR-3 > 100 µM

COc1ccc(C=C(c2ccc(OCc3ccccc3)cc2)c2ccc(OCc3ccccc3)cc2)cc1
inactive: DLD-1 > 100 µM | NCI-H226 > 100 µM | ACHN > 100 µM | Malme-3M > 100 µM | UACC-62 > 100 µM | SF-295 > 100 µM | SK-MEL-2 > 100 µM | LOX IMVI > 100 µM | CAKI-1 > 100 µM | SN12C > 100 µM | SNB-19 > 100 µM | NCI-H460 > 100 µM | KM12 > 100 µM | OVCAR-3 > 100 µM

O=C(Nc1cc(Cl)c(Cl)cc1Cl)C(=O)C(C(=O)c1ccccc1)C1OC(=O)c2ccccc21 (configuration not stated)
inactive: DLD-1 > 100 µM | NCI-H226 > 100 µM | ACHN > 100 µM | Malme-3M > 100 µM | UACC-62 > 100 µM | K562 > 100 µM | SF-295 > 100 µM | LOX IMVI > 100 µM | CAKI-1 > 100 µM | SN12C > 100 µM | SNB-19 > 100 µM | NCI-H460 > 100 µM | KM12 > 100 µM | OVCAR-3 > 100 µM

O=C1CCCCC12CCC/C2=N\O (configuration not stated)
inactive: DLD-1 > 100 µM | NCI-H226 > 100 µM | ACHN > 100 µM | Malme-3M > 100 µM | UACC-62 > 100 µM | K562 > 100 µM | SK-MEL-2 > 100 µM | CAKI-1 > 100 µM | SN12C > 100 µM | SNB-19 > 100 µM | NCI-H460 > 100 µM | KM12 > 100 µM | OVCAR-3 > 100 µM

Cc1c2ccncc2c(C)c2c1[nH]c1ccc(OC(C)(C)C)cc12
inactive: DLD-1 2.39 µM | NCI-H226 3.17 µM | Malme-3M 1.77 µM | UACC-62 2.31 µM | K562 2.08 µM | SF-295 2.07 µM | SK-MEL-2 2.03 µM | LOX IMVI 2.24 µM | CAKI-1 1.81 µM | SNB-19 2.47 µM | NCI-H460 1.93 µM | OVCAR-3 1.73 µM

Clc1ccc(C2SCc3nc4ccccc4n32)c(Cl)c1 (configuration not stated)
inactive: DLD-1 15.7 µM | NCI-H226 14.8 µM | ACHN 15 µM | Malme-3M 17.7 µM | UACC-62 17.7 µM | K562 11 µM | SF-295 8.36 µM | SK-MEL-2 16.5 µM | LOX IMVI 15.3 µM | SN12C 14.6 µM | SNB-19 18 µM | NCI-H460 16.6 µM | KM12 14.7 µM | OVCAR-3 14.1 µM
